# From PubChem BioAssay AID1745844 (Carcinogenic Potency Database (CPDB), 2022)
# “And” between values parts separate entries of the source, which are not always exact repeats. Identical values can stand only once. The source made the active and inactive calls. No rule for the calls is given here.
# Tested on: rodent lifetime carcinogenesis bioassay, tumor incidence TD50
# Assay: chronic cancer bioassays in animals – CPDB, compiled studies (AID 1745844)
# [1] = mouse, strain ICI, males, by gavage, site: liver, lesion: several types, types named in the paper, dosed 80 weeks, study length 98 weeks
# [2] = mouse, strain ICI, males, by gavage, site: lung, lesion: several types, types named in the paper, dosed 80 weeks, study length 98 weeks
structure (smiles),measurement,setting,value
ClC(Cl)Cl,TD50,"dog, strain Beagle, females, in feed, site: any site (literature study), lesion: several types, types named in the paper, dosed 376 weeks, study length 397 weeks",10 mg/kg/day (inactive)
same,carcinogen call,"dog, strain Beagle, females, in feed, site: liver, lesion: one or several types, types not named, dosed 376 weeks, study length 397 weeks",negative (inactive)
same,TD50,"dog, strain Beagle, males, in feed, site: any site (literature study), lesion: several types, types named in the paper, dosed 376 weeks, study length 397 weeks",13.3 mg/kg/day (inactive)
same,carcinogen call,"dog, strain Beagle, males, in feed, site: liver, lesion: one or several types, types not named, dosed 376 weeks, study length 397 weeks",negative (inactive)
same,TD50,"mouse, strain B6C3F1, females, by gavage, site: any site (literature study), lesion: several types, types named in the paper, dosed 78 weeks, study length 92 weeks",54.1 mg/kg/day
same,TD50,"mouse, strain B6C3F1, females, by gavage, site: liver, lesion: hepatocellular adenoma + hepatocellular carcinoma + neoplastic nodule, dosed 78 weeks, study length 92 weeks",48 mg/kg/day
same,TD50,"mouse, strain B6C3F1, females, by gavage, site: liver, lesion: hepatocellular carcinoma, dosed 78 weeks, study length 92 weeks",48 mg/kg/day
same,carcinogen call,"mouse, strain B6C3F1, females, in drinking water, site: any site (literature study), lesion: several types, types named in the paper, dosed 104 weeks, study length 104 weeks",negative (inactive)
same,carcinogen call,"mouse, strain B6C3F1, females, in drinking water, site: liver, lesion: hepatocellular adenoma, dosed 104 weeks, study length 104 weeks",negative (inactive)
same,TD50,"mouse, strain B6C3F1, females, in drinking water, site: liver, lesion: hepatocellular carcinoma, dosed 104 weeks, study length 104 weeks",20200 mg/kg/day (inactive)
same,carcinogen call,"mouse, strain B6C3F1, females, in drinking water, site: liver, lesion: several types, types named in the paper, dosed 104 weeks, study length 104 weeks",negative (inactive)
same,TD50,"mouse, strain B6C3F1, males, by gavage, site: any site (literature study), lesion: several types, types named in the paper, dosed 78 weeks, study length 92 weeks",71.1 mg/kg/day
same,TD50,"mouse, strain B6C3F1, males, by gavage, site: liver, lesion: hepatocellular adenoma + hepatocellular carcinoma + neoplastic nodule, dosed 78 weeks, study length 92 weeks",56.2 mg/kg/day
same,TD50,"mouse, strain B6C3F1, males, by gavage, site: liver, lesion: hepatocellular carcinoma, dosed 78 weeks, study length 92 weeks",56.2 mg/kg/day
same,carcinogen call,"mouse, strain C57BL, males, by gavage, site: any site (literature study), lesion: several types, types named in the paper, dosed 80 weeks, study length 104 weeks",negative (inactive)
same,carcinogen call,"mouse, strain C57BL, males, by gavage, site: liver, lesion: one or several types, types not named, dosed 80 weeks, study length 104 weeks",negative (inactive)
same,TD50,"mouse, strain C57BL, males, by gavage, site: lung, lesion: several types, types named in the paper, dosed 80 weeks, study length 104 weeks",728 mg/kg/day (inactive)
same,carcinogen call,"mouse, strain CBA, males, by gavage, site: any site (literature study), lesion: several types, types named in the paper, dosed 80 weeks, study length 104 weeks",negative (inactive)
same,carcinogen call,"mouse, strain CBA, males, by gavage, site: liver, lesion: several types, types named in the paper, dosed 80 weeks, study length 104 weeks",negative (inactive)
same,carcinogen call,"mouse, strain CBA, males, by gavage, site: lung, lesion: several types, types named in the paper, dosed 80 weeks, study length 104 weeks",negative (inactive)
same,TD50,"mouse, strain CF-1, males, by gavage, site: any site (literature study), lesion: several types, types named in the paper, dosed 80 weeks, study length 93 weeks",140 mg/kg/day (inactive)
same,TD50,"mouse, strain CF-1, males, by gavage, site: liver, lesion: one or several types, types not named, dosed 80 weeks, study length 93 weeks",1430 mg/kg/day (inactive)
same,TD50,"mouse, strain CF-1, males, by gavage, site: lung, lesion: several types, types named in the paper, dosed 80 weeks, study length 93 weeks",376 mg/kg/day (inactive)
same,TD50,"mouse, strain CFLP, males, by gavage, site: kidney, lesion: several types, types named in the paper, dosed 80 weeks, study length 104 weeks",153 mg/kg/day
same,carcinogen call,"mouse, strain CFLP, males, by gavage, site: liver, lesion: one or several types, types not named, dosed 80 weeks, study length 104 weeks",negative (inactive)
same,TD50,"mouse, strain CFLP, males, by gavage, site: lung, lesion: one or several types, types not named, dosed 80 weeks, study length 104 weeks",4350 mg/kg/day (inactive)
same,TD50,"mouse, strain Crj:BDF1, females, inhaled, site: liver, lesion: hepatocellular carcinoma, dosed 104 weeks, study length 104 weeks",2670 mg/kg/day
same,TD50,"mouse, strain Crj:BDF1, females, inhaled, site: liver, lesion: several types, types named in the paper, dosed 104 weeks, study length 104 weeks",909 mg/kg/day
same,TD50,"mouse, strain Crj:BDF1, females, inhaled, site: pituitary gland, lesion: adenoma, dosed 104 weeks, study length 104 weeks",2070 mg/kg/day
same,TD50,"mouse, strain Crj:BDF1, males, inhaled, site: kidney, lesion: renal-cell adenoma, dosed 104 weeks, study length 104 weeks",1250 mg/kg/day
same,TD50,"mouse, strain Crj:BDF1, males, inhaled, site: kidney, lesion: renal-cell carcinoma, dosed 104 weeks, study length 104 weeks",287 mg/kg/day
same,TD50,"mouse, strain Crj:BDF1, males, inhaled, site: kidney, lesion: several types, types named in the paper, dosed 104 weeks, study length 104 weeks",226 mg/kg/day
same,TD50,"mouse, strain Crj:BDF1, males, inhaled, site: liver, lesion: several types, types named in the paper, dosed 104 weeks, study length 104 weeks",402 mg/kg/day
same,TD50,"mouse, strain Crj:BDF1, males, inhaled, site: lung, lesion: alveolar/bronchiolar carcinoma, dosed 104 weeks, study length 104 weeks",3530 mg/kg/day
same,carcinogen call,"mouse, strain ICI, females, by gavage, site: any site (literature study), lesion: several types, types named in the paper, dosed 80 weeks, study length 96 weeks",negative (inactive)
same,carcinogen call,"mouse, strain ICI, females, by gavage, site: liver, lesion: one or several types, types not named, dosed 80 weeks, study length 96 weeks",negative (inactive)
same,TD50,"mouse, strain ICI, females, by gavage, site: lung, lesion: one or several types, types not named, dosed 80 weeks, study length 96 weeks",316 mg/kg/day (inactive)
same,TD50,"mouse, strain ICI, males, by gavage, site: any site (literature study), lesion: several types, types named in the paper, dosed 80 weeks, study length 96 weeks",45.4 mg/kg/day
same,TD50,"mouse, strain ICI, males, by gavage, site: any site (literature study), lesion: several types, types named in the paper, dosed 80 weeks, study length 98 weeks",88.5 mg/kg/day
same,TD50,"mouse, strain ICI, males, by gavage, site: kidney, lesion: several types, types named in the paper, dosed 80 weeks, study length 96 weeks",139 mg/kg/day
same,TD50,"mouse, strain ICI, males, by gavage, site: kidney, lesion: several types, types named in the paper, dosed 80 weeks, study length 98 weeks",278 mg/kg/day and 95.5 mg/kg/day
same,TD50,"mouse, strain ICI, males, by gavage, site: liver, lesion: one or several types, types not named, dosed 80 weeks, study length 96 weeks",324 mg/kg/day (inactive)
same,TD50,[1],437 mg/kg/day (inactive)
same,carcinogen call,[1],negative (inactive)
same,TD50,"mouse, strain ICI, males, by gavage, site: lung, lesion: one or several types, types not named, dosed 80 weeks, study length 96 weeks",9830 mg/kg/day (inactive)
same,TD50,[2],336 mg/kg/day (inactive)
same,carcinogen call,[2],negative (inactive)
same,TD50,"rat, strain F344/DuCrj, females, inhaled, site: kidney, lesion: renal-cell adenoma, dosed 104 weeks, study length 104 weeks",1590 mg/kg/day (inactive)
same,TD50,"rat, strain F344/DuCrj, females, inhaled, site: kidney, lesion: transitional-cell carcinoma, dosed 104 weeks, study length 104 weeks",1590 mg/kg/day (inactive)
same,TD50,"rat, strain F344/DuCrj, females, inhaled, site: liver, lesion: hepatocellular adenoma, dosed 104 weeks, study length 104 weeks",2180 mg/kg/day (inactive)
same,carcinogen call,"rat, strain F344/DuCrj, males, inhaled, site: kidney, lesion: one or several types, types not named, dosed 104 weeks, study length 104 weeks",negative (inactive)
same,carcinogen call,"rat, strain F344/DuCrj, males, inhaled, site: liver, lesion: several types, types named in the paper, dosed 104 weeks, study length 104 weeks",negative (inactive)
same,TD50,"rat, strain Osborne-Mendel, females, by gavage, site: any site (literature study), lesion: several types, types named in the paper, dosed 78 weeks, study length 110 weeks",68.2 mg/kg/day
same,TD50,"rat, strain Osborne-Mendel, females, by gavage, site: liver, lesion: hepatocellular adenoma + hepatocellular carcinoma + neoplastic nodule, dosed 78 weeks, study length 110 weeks",1130 mg/kg/day
same,TD50,"rat, strain Osborne-Mendel, females, by gavage, site: thyroid gland, lesion: c-cell adenoma + c-cell carcinoma + follicular-cell adenoma + follicular-cell carcinoma, dosed 78 weeks, study length 110 weeks",126 mg/kg/day (inactive)
same,TD50,"rat, strain Osborne-Mendel, males, by gavage, site: any site (literature study), lesion: several types, types named in the paper, dosed 78 weeks, study length 110 weeks",194 mg/kg/day
same,TD50,"rat, strain Osborne-Mendel, males, by gavage, site: kidney, lesion: tubular-cell adenoma + tubular-cell adenocarcinoma, dosed 78 weeks, study length 110 weeks",119 mg/kg/day
same,TD50,"rat, strain Osborne-Mendel, males, by gavage, site: liver, lesion: hepatocellular adenoma + hepatocellular carcinoma + neoplastic nodule, dosed 78 weeks, study length 110 weeks",455 mg/kg/day
same,TD50,"rat, strain Osborne-Mendel, males, in drinking water, site: all sites, lesion: neurofibroma, dosed 104 weeks, study length 104 weeks",2200 mg/kg/day
same,TD50,"rat, strain Osborne-Mendel, males, in drinking water, site: all sites, lesion: several types, types named in the paper, dosed 104 weeks, study length 104 weeks",1360 mg/kg/day
same,TD50,"rat, strain Osborne-Mendel, males, in drinking water, site: any site (literature study), lesion: several types, types named in the paper, dosed 104 weeks, study length 104 weeks",1970 mg/kg/day
same,TD50,"rat, strain Osborne-Mendel, males, in drinking water, site: kidney, lesion: several types, types named in the paper, dosed 104 weeks, study length 104 weeks",519 mg/kg/day and 606 mg/kg/day
same,TD50,"rat, strain Osborne-Mendel, males, in drinking water, site: kidney, lesion: tubular-cell adenoma, dosed 104 weeks, study length 104 weeks",972 mg/kg/day
same,TD50,"rat, strain Sprague-Dawley, females, by gavage, site: any site (literature study), lesion: malignant tumor, dosed 80 weeks, study length 95 weeks",276 mg/kg/day (inactive)
same,TD50,"rat, strain Sprague-Dawley, females, by gavage, site: any site (literature study), lesion: several types, types named in the paper, dosed 80 weeks, study length 95 weeks",78.3 mg/kg/day (inactive)
same,TD50,"rat, strain Sprague-Dawley, females, by gavage, site: liver, lesion: cystadenoma, dosed 80 weeks, study length 95 weeks",1200 mg/kg/day (inactive)
same,carcinogen call,"rat, strain Sprague-Dawley, males, by gavage, site: any site (literature study), lesion: malignant tumor, dosed 80 weeks, study length 95 weeks",negative (inactive)
same,carcinogen call,"rat, strain Sprague-Dawley, males, by gavage, site: any site (literature study), lesion: several types, types named in the paper, dosed 80 weeks, study length 95 weeks",negative (inactive)
same,carcinogen call,"rat, strain Sprague-Dawley, males, by gavage, site: liver, lesion: one or several types, types not named, dosed 80 weeks, study length 95 weeks",negative (inactive)
same,TD50,"rat, strain Wistar, females, in drinking water, site: liver, lesion: hepatocellular carcinoma, dosed 187 weeks, study length 187 weeks",10000 mg/kg/day
same,TD50,"rat, strain Wistar, females, in drinking water, site: liver, lesion: neoplastic nodule, dosed 187 weeks, study length 187 weeks",883 mg/kg/day
same,TD50,"rat, strain Wistar, males, in drinking water, site: kidney, lesion: adenocarcinoma, dosed 172 weeks, study length 172 weeks",5300 mg/kg/day
same,TD50,"rat, strain Wistar, males, in drinking water, site: kidney, lesion: adenoma, dosed 172 weeks, study length 172 weeks",5300 mg/kg/day
same,TD50,"rat, strain Wistar, males, in drinking water, site: liver, lesion: hepatocellular carcinoma, dosed 172 weeks, study length 172 weeks",5300 mg/kg/day
C=CC(O)c1ccc(OC)cc1 (stereo not given),TD50,"mouse, strain Charles River CD1, females, in feed, site: liver, lesion: hepatoma, dosed 51 weeks, study length 86 weeks",57.8 mg/kg/day
